What follows are compounds tested against MPS1 (Homo sapiens, UniProt P33981) (assay: biochemical).
Description: Amplification was performed using the forward oligonucleotide:
The inhibitory activity of putative kinase inhibitors and the potency of selected compounds were determined using a trans-phosphorylation assay.
Three cycles of mixing are done immediately after the addition of the resin.

Sequence of MPS1 (P33981 2-857): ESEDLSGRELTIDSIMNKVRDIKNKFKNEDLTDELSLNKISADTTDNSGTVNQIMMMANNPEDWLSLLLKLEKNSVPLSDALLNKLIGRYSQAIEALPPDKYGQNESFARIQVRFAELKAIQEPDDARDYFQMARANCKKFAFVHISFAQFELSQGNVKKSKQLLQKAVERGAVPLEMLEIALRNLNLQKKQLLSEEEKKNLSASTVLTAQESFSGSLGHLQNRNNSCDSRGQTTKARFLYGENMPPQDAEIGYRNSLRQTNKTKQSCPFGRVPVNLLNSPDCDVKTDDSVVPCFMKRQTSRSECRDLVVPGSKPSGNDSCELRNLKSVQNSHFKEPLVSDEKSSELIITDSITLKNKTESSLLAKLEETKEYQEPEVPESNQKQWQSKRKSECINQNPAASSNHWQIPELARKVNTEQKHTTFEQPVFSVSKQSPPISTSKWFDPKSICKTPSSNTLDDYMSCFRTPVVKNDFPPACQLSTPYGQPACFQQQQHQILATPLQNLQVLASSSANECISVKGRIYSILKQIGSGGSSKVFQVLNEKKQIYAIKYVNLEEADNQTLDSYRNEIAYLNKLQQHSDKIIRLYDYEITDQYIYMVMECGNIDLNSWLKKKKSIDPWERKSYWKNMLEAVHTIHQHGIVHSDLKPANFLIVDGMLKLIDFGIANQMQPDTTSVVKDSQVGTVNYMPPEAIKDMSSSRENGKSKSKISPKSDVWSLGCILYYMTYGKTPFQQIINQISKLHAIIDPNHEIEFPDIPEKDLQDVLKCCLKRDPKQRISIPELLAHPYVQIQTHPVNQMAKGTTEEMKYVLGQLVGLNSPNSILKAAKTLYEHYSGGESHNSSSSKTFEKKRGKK

Row | SMILES | IC50 [nM]
1 | CCc1cccc(CC)c1NC(=O)c1cc(-c2ccnc(Nc3ccc(C(=O)N(C)C)cc3C)n2)n(C)c1 [Compound 14, 5-[2-(4-Dimethylcarbamoyl-2-methyl-phenylamino)-pyrimidin-4-yl]-1-methyl-1H-pyrrole-3-carboxylic acid (2,6-diethyl-phenyl)-amide] | 41
2 | CCc1cccc(CC)c1NC(=O)c1cc(-c2nc(Nc3ccc(C(N)=O)cc3C)ncc2Cl)n(C)c1Cl [Compound 21, 5-[2-(4-Carbamoyl-2-methyl-phenylamino)-5-chloro-pyrimidin-4-yl]-2-chloro-1-methyl-1H-pyrrole-3-carboxylic acid (2,6-diethyl-phenyl)-amide] | 22
3 | CCc1cccc(CC)c1NC(=O)c1cc(-c2nc(Nc3ccc(C(=O)N4CCC(N(C)C)CC4)cc3C)ncc2C)n(C)c1 [Compound 31, 5-{2-[4-(4-Dimethylamino-piperidine-1-carbonyl)-2-methyl-phenylamino]-5-methyl-pyrimidin-4-yl}-1-methyl-1H-pyrrole-3-carboxylic acid (2,6-diethyl-phenyl)-amide] | 67
4 | CCc1cccc(CC)c1NC(=O)c1cc(-c2ccnc(Nc3ccc(N(C)CCCN(C)C)cc3OC)n2)n(C)c1 [Compound 32, 5-(2-{4-[(3-Dimethylamino-propyl)-methyl-amino]-2-methoxy-phenylamino}-pyrimidin-4-yl)-1-methyl-1H-pyrrole-3-carboxylic acid (2,6-diethyl-phenyl)-amide] | 110
5 | COc1cc(N2CCN(C)CC2)ccc1Nc1nccc(-c2cc(C(=O)Nc3c(C)cccc3Cl)cn2C)n1 [Compound 37, 5-{2-[2-Methoxy-4-(4-methyl-piperazin-1-yl)-phenylamino]-pyrimidin-4-yl}-1-methyl-1H-pyrrole-3-carboxylic acid (2-chloro-6-methyl-phenyl)-amide] | 84

— patent publication US8772280B2, “N-aryl-2-(2-arylaminopyrimidin-4-yl)pyrrol-4-carboxamide derivatives as MPS1 kinase inhibitors” (Nerviano Medical Sciences S.R.L., priority 2009, dated 2014)
